Measured values reported in the NIST ThermoML archive (doi:10.1016/j.jct.2005.03.020).

Tests used:
[1] = excess molar enthalpy (molar enthalpy of mixing); xn = mol fraction of the nth substance listed; settings: 298.15 K, 101.33 kPa, Liquid
[2] = xn = mol fraction of the nth substance listed; settings: 298.15 K, 101.33 kPa, Liquid

ClCCCl [1,2-dichloroethane] + CCOC(C)=O
Settings	excess molar enthalpy [kJ/mol]	mass density [kg/m3]
[1], x2 = 0.0368	-0.0393	–
[1], x2 = 0.0819	-0.0877	–
[1], x2 = 0.131	-0.144	–
[1], x2 = 0.1846	-0.205	–
[1], x2 = 0.2408	-0.269	–
[1], x2 = 0.295	-0.326	–
[1], x2 = 0.3419	-0.363	–
[1], x2 = 0.3836	-0.391	–
[1], x2 = 0.4244	-0.422	–
[1], x2 = 0.46	-0.443	–
[1], x2 = 0.4728	-0.446	–
[1], x2 = 0.4972	-0.451	–
[1], x2 = 0.5087	-0.451	–
[1], x2 = 0.5523	-0.449	–
[1], x2 = 0.604	-0.436	–
[1], x2 = 0.6668	-0.404	–
[1], x2 = 0.747	-0.338	–
[1], x2 = 0.8328	-0.243	–
[1], x2 = 0.9184	-0.135	–
[2], x2 = 0.0497	–	1223.67
[2], x2 = 0.0983	–	1202.79
[2], x2 = 0.1492	–	1181.45
[2], x2 = 0.1997	–	1160.95
[2], x2 = 0.2524	–	1140.18
[2], x2 = 0.3059	–	1119.62
[2], x2 = 0.3618	–	1098.71
[2], x2 = 0.4184	–	1078.16
[2], x2 = 0.4765	–	1057.68
[2], x2 = 0.5356	–	1037.35
[2], x2 = 0.5982	–	1016.38
[2], x2 = 0.6603	–	996.21
[2], x2 = 0.7247	–	975.88
[2], x2 = 0.7893	–	955.96
[2], x2 = 0.857	–	935.65
[2], x2 = 0.928	–	914.85

ClCCCCCCCl [1,6-dichlorohexane] + CCCCC(=O)OCC
Settings	excess molar enthalpy [kJ/mol]	mass density [kg/m3]
[1], x2 = 0.0607	-0.0181	–
[1], x2 = 0.127	-0.0375	–
[1], x2 = 0.1968	-0.061	–
[1], x2 = 0.264	-0.0857	–
[1], x2 = 0.3289	-0.111	–
[1], x2 = 0.389	-0.139	–
[1], x2 = 0.4445	-0.166	–
[1], x2 = 0.4953	-0.183	–
[1], x2 = 0.5409	-0.188	–
[1], x2 = 0.5672	-0.188	–
[1], x2 = 0.5813	-0.188	–
[1], x2 = 0.6117	-0.181	–
[1], x2 = 0.6723	-0.165	–
[1], x2 = 0.7364	-0.143	–
[1], x2 = 0.8027	-0.116	–
[1], x2 = 0.8717	-0.0828	–
[1], x2 = 0.9373	-0.0449	–
[2], x2 = 0.0538	–	1053.1
[2], x2 = 0.1126	–	1041.51
[2], x2 = 0.1693	–	1030.36
[2], x2 = 0.2307	–	1018.34
[2], x2 = 0.287	–	1007.32
[2], x2 = 0.3464	–	995.69
[2], x2 = 0.5231	–	961.26
[2], x2 = 0.5825	–	949.74
[2], x2 = 0.701	–	926.81
[2], x2 = 0.7586	–	915.69
[2], x2 = 0.8777	–	892.8
[2], x2 = 0.94	–	880.88

ClCCCCl [1,3-dichloropropane] + CCCC(=O)OCC
Settings	excess molar enthalpy [kJ/mol]	mass density [kg/m3]
[1], x2 = 0.045	-0.0259	–
[1], x2 = 0.0966	-0.0636	–
[1], x2 = 0.1504	-0.0979	–
[1], x2 = 0.2076	-0.147	–
[1], x2 = 0.2635	-0.189	–
[1], x2 = 0.3171	-0.236	–
[1], x2 = 0.3678	-0.282	–
[1], x2 = 0.4155	-0.311	–
[1], x2 = 0.4596	-0.327	–
[1], x2 = 0.5012	-0.335	–
[1], x2 = 0.5417	-0.334	–
[1], x2 = 0.605	-0.326	–
[1], x2 = 0.6754	-0.297	–
[1], x2 = 0.7523	-0.244	–
[1], x2 = 0.8348	-0.179	–
[1], x2 = 0.9216	-0.0999	–
[2], x2 = 0.0446	–	1159.59
[2], x2 = 0.088	–	1141.99
[2], x2 = 0.1341	–	1124.03
[2], x2 = 0.1825	–	1105.75
[2], x2 = 0.2294	–	1088.7
[2], x2 = 0.2836	–	1069.63
[2], x2 = 0.3377	–	1051.42
[2], x2 = 0.3924	–	1033.68
[2], x2 = 0.4475	–	1016.45
[2], x2 = 0.5058	–	998.9
[2], x2 = 0.5686	–	980.73
[2], x2 = 0.6322	–	963.09
[2], x2 = 0.6986	–	945.45
[2], x2 = 0.7724	–	926.66
[2], x2 = 0.8405	–	910.03

ClCCCCl [1,3-dichloropropane] + CCOC(C)=O
[2]
Settings	mass density [kg/m3]
x2 = 0.0582	1160.94
x2 = 0.1136	1144.62
x2 = 0.1719	1127.58
x2 = 0.2292	1110.81
x2 = 0.2869	1094.08
x2 = 0.3444	1077.42
x2 = 0.4017	1061.01
x2 = 0.4609	1044.12
x2 = 0.5208	1027.15
x2 = 0.5839	1009.34
x2 = 0.6423	992.92
x2 = 0.7017	976.39
x2 = 0.7599	960.24
x2 = 0.8205	943.48
x2 = 0.8803	927.01
x2 = 0.9389	911.03
